Test results from patent publication US20050113450A1, “Antibacterial agents” (priority 2002, published 2005).
Values after ≈ are worked out from the molar mass of the structure shown.

Tested on: SA 9218
Experiment: MIC by standard agar dilution method
Assay type: cell-based
Conditions: Mueller Hinton agar, 10^4 to 10^5 cells per spot, incubated overnight at 35° C., lowest concentration that inhibits visible growth
Description: The antibacterial agents of this invention have useful activity against a variety of organisms. The in vitro activity of compounds of this invention can be assessed by standard testing procedures such as the determination of minimum inhibitory concentration (MIC) by agar dilution as described in “Approved Standard. Methods for Dilution Antimicrobial Susceptibility Tests for Bacteria That Grow Aerobically”, 3rd. ed., published 1993 by the National Committee for Clinical Laboratory Standards, Villanova, Pa., USA. The in vitro MICs of test compounds were determined by a standard agar dilution method. A stock drug solution of each analog was prepared in the preferred solvent, usually DMSO:H2O (1:3). Serial 2-fold dilutions of each sample are made using 1.0 ml aliquots of sterile distilled water. To each 1.0 ml aliquot of drug was added 9 ml of molten Mueller Hinton agar medium. The drug-supplemented agar was mixed, poured into 15×100 mm petri dishes, and allowed to solidify and dry prior to inoculation. Vials of each of the test organisms are maintained frozen in the vapor phase of a liquid nitrogen freezer. Test cultures are grown overnight at 35° C. on the medium appropriate for the organism. Colonies are harvested with a sterile swab, and cell suspensions are prepared in Trypticase Soy broth (TSB) to equal the turbidity of a 0.5 McFarland standard. A 1:20 dilution of each suspension was made in TSB. The plates containing the drug supplemented agar are inoculated with a 0.001 ml drop of the cell suspension using a Steers replicator, yielding approximately 10^4 to 10^5 cells per spot. The plates are incubated overnight at 35° C. Following incubation the Minimum Inhibitory Concentration (MIC μg/ml), the lowest concentration of drug that inhibits visible growth of the organism, was read and recorded.

Structure (SMILES) | MIC [µg/mL]
CCNS(=O)(=O)c1cccc(C(=O)Nc2ccc(Br)cc2C(=O)O)c1 | 64 (≈ 150 µM)
O=C(Nc1ccc(Br)cc1C(=O)O)c1cc(S(=O)(=O)N2CCN(c3cccc(C(F)(F)F)c3)CC2)ccc1Br | 8 (≈ 11.6 µM)
O=C(Nc1ccc(Br)cc1C(=O)O)c1ccc(S(=O)(=O)NC2Cc3ccccc3C2)cc1 | 32 (≈ 62.1 µM)
CN(C)c1ccc(CNS(=O)(=O)c2cc(C(=O)Nc3ccc(Br)cc3C(=O)O)ccc2Br)cc1 | 64 (≈ 105 µM)
CCN(Cc1ccncc1)S(=O)(=O)c1ccc(C(=O)Nc2ccc(Br)cc2C(=O)O)cc1 | 32 (≈ 61.7 µM)
CN(C)c1ccc(CNS(=O)(=O)c2cccc(C(=O)Nc3ccc(Br)cc3C(=O)O)c2)cc1 | 64 (≈ 120 µM)
Cc1ccc(C(=O)Nc2ccc(Br)cc2C(=O)O)cc1S(=O)(=O)NCc1ccc(N(C)C)cc1 | 128 (≈ 234 µM)
CN(C)c1ccc(CNS(=O)(=O)c2ccc(Br)c(C(=O)Nc3ccc(Br)cc3C(=O)O)c2)cc1 | 16 (≈ 26.2 µM)
Cc1ccc(C(=O)Nc2ccc(Br)cc2C(=O)O)cc1S(=O)(=O)N1CCc2ccccc21 | 1 (≈ 1.94 µM)
CN(C)c1ccc(CNS(=O)(=O)c2ccc(C(=O)Nc3ccc(Br)cc3C(=O)O)cc2)cc1 | 128 (≈ 240 µM)
O=C(Nc1ccc(Br)cc1C(=O)O)c1cc(S(=O)(=O)N2CCc3ccccc32)c(F)cc1Cl | 8 (≈ 14.4 µM)
Cc1ccc(C(=O)Nc2ccc(Br)cc2C(=O)O)cc1S(=O)(=O)Nc1ccc(Cl)c2ccccc12 | 8 (≈ 13.9 µM)
Cc1ccc(S(=O)(=O)Nc2ccc3c(c2)OCCO3)cc1C(=O)Nc1ccc(Br)cc1C(=O)O | 64 (≈ 117 µM)
COc1ccc(C(=O)Nc2ccc(Br)cc2C(=O)O)cc1S(=O)(=O)N1CCc2ccccc21 | 4 (≈ 7.53 µM)
O=C(Nc1ccc(Br)cc1C(=O)O)c1cc(S(=O)(=O)Nc2ccc3c(c2)OCCO3)ccc1Br | 0.5 (≈ 0.817 µM)
Cc1ccc(C(=O)Nc2ccc(Br)cc2C(=O)O)cc1S(=O)(=O)Nc1ccc2c(c1)OCCO2 | 1 (≈ 1.83 µM)
O=C(Nc1ccc(Br)cc1C(=O)O)c1ccc(S(=O)(=O)Nc2ccc3c(c2)OCCO3)cc1 | 16 (≈ 30 µM)
COc1ccc(C(=O)Nc2ccc(Br)cc2C(=O)O)cc1S(=O)(=O)Nc1ccc2c(c1)OCCO2 | 8 (≈ 14.2 µM)
O=C(Nc1ccc(Br)cc1C(=O)O)c1cccc(S(=O)(=O)Nc2ccc(N3CCOCC3)cc2)c1 | 32 (≈ 57.1 µM)
O=C(Nc1ccc(Br)cc1C(=O)O)c1cccc(S(=O)(=O)Nc2ccc3c(c2)OCCO3)c1 | 4 (≈ 7.5 µM)
CCN(CC)c1ccc(NS(=O)(=O)c2cc(C(=O)Nc3ccc(Br)cc3C(=O)O)ccc2C)cc1 | 64 (≈ 114 µM)
COc1ccc(C(=O)Nc2ccc(Br)cc2C(=O)O)cc1S(=O)(=O)Nc1ccc(Cl)cc1 | 16 (≈ 29.6 µM)
CCN(CC)c1ccc(NS(=O)(=O)c2cccc(C(=O)Nc3ccc(Br)cc3C(=O)O)c2)cc1 | 128 (≈ 234 µM)
O=C(Nc1ccc(Br)cc1C(=O)O)c1ccc(S(=O)(=O)Nc2ccc(N3CCOCC3)cc2)cc1 | 64 (≈ 114 µM)
Cc1ccc(C(=O)Nc2ccc(Br)cc2C(=O)O)cc1S(=O)(=O)N1CCc2ccc(Cl)cc21 | 1 (≈ 1.82 µM)
COc1cc(C(=O)Nc2ccc(C#N)cc2C(=O)O)c([N+](=O)[O-])cc1OC | > 128
N#Cc1ccc(C(=O)Nc2ccc(C#N)cc2C(=O)O)cc1 | > 128

Structure (SMILES) | MIC [µg/mL]
N#Cc1ccc(NC(=O)c2ccc3ccccc3c2)c(C(=O)O)c1 | 2 (≈ 6.32 µM)
N#Cc1ccc(NC(=O)c2cccc(F)c2)c(C(=O)O)c1 | 64 (≈ 225 µM)
CCOc1cc(C(=O)Nc2ccc(C#N)cc2C(=O)O)cc(OCC)c1OCC | 16 (≈ 40.2 µM)
CCSc1ccc(C(=O)Nc2ccc(C#N)cc2C(=O)O)cc1 | 2 (≈ 6.13 µM)
COc1ccc(C(=O)Nc2ccc(C#N)cc2C(=O)O)cc1 | 16 (≈ 54 µM)
CCN(CC)c1ccc(C(=O)Nc2ccc(C#N)cc2C(=O)O)cc1 | 16 (≈ 47.4 µM)
CCN(CC)C(=O)c1c(F)ccc(F)c1C(=O)Nc1ccc(C#N)cc1C(=O)O | > 128
COc1ccc(C(=O)Nc2ccc(C#N)cc2C(=O)O)cc1OC | 64 (≈ 196 µM)
CCCOc1ccc(C(=O)Nc2ccc(C#N)cc2C(=O)O)cc1 | 16 (≈ 49.3 µM)
CCOc1ccc(C(=O)Nc2ccc(C#N)cc2C(=O)O)cc1OCC | 128 (≈ 361 µM)
N#Cc1ccc(NC(=O)c2ccc3c(c2)OCO3)c(C(=O)O)c1 | 16 (≈ 51.6 µM)
CCOc1ccc(C(=O)Nc2ccc(C#N)cc2C(=O)O)cc1 | 32 (≈ 103 µM)
COc1ccc(CCOc2ccc(C(=O)Nc3ccc(Br)cc3C(=O)O)cc2)cc1 | > 128
N#Cc1ccc(NC(=O)c2cccc3c2C(=O)c2ccccc2-3)c(C(=O)O)c1 | > 128
COc1ccc(CCOc2cccc(C(=O)Nc3ccc(Br)cc3C(=O)O)c2)cc1 | 32 (≈ 68 µM)
CCCCCOc1ccc(C(=O)Nc2ccc(C#N)cc2C(=O)O)cc1 | 4 (≈ 11.4 µM)
O=C(Nc1ccc(Br)cc1C(=O)O)c1cccc(OCc2cccc([N+](=O)[O-])c2)c1 | 16 (≈ 34 µM)
Cc1cccc(C(=O)Nc2ccc(C#N)cc2C(=O)O)c1 | 32 (≈ 114 µM)
O=C(Nc1ccc(Br)cc1C(=O)O)c1cccc(OCc2cccc(F)c2)c1 | 16 (≈ 36 µM)
COc1ccc(C(=O)Nc2ccc(C#N)cc2C(=O)O)cc1F | 8 (≈ 25.5 µM)
O=C(Nc1ccc(Br)cc1C(=O)O)c1cccc(OCc2ccncc2)c1 | > 128
O=C(Nc1ccc(Br)cc1C(=O)O)c1ccc(OCc2cccc(C(F)(F)F)c2)cc1 | 32 (≈ 64.7 µM)
O=C(Nc1ccc(Br)cc1C(=O)O)c1ccc(OCc2cccc([N+](=O)[O-])c2)cc1 | 16 (≈ 34 µM)
O=C(Nc1ccc(Br)cc1C(=O)O)c1cccc(OCc2cccc(C(F)(F)F)c2)c1 | 64 (≈ 129 µM)
COc1cc(COc2ccc(C(=O)Nc3ccc(Br)cc3C(=O)O)cc2)ccc1[N+](=O)[O-] | 8 (≈ 16 µM)
O=C(Nc1ccc(Br)cc1C(=O)O)c1ccc(OCC2CCCC2)cc1 | > 128
C#CC(CC)Oc1ccc(C(=O)Nc2ccc(Br)cc2C(=O)O)cc1 (centres unmarked) | > 128

Structure (SMILES) | MIC [µg/mL]
O=C(Nc1ccc(Br)cc1C(=O)O)c1cccc(OCC2CCCC2)c1 | 128 (≈ 306 µM)
CCN(CCOc1ccc(C(=O)Nc2ccc(Br)cc2C(=O)O)cc1)c1ccccc1 | 64 (≈ 132 µM)
O=C(Nc1ccc(Br)cc1C(=O)O)c1ccc(OCCN2C(=O)CCC2=O)cc1 | > 128
Cc1ncc([N+](=O)[O-])n1CCOc1ccc(C(=O)Nc2ccc(Br)cc2C(=O)O)cc1 | 128 (≈ 262 µM)
O=C(Nc1ccc(Br)cc1C(=O)O)c1ccc(OCc2cccc(F)c2)cc1 | 32 (≈ 72 µM)
CN1CCCC1COc1ccc(C(=O)Nc2ccc(Br)cc2C(=O)O)cc1 (centres unmarked) | > 128
O=C(Nc1ccc(Br)cc1C(=O)O)c1ccc(OCc2ccncc2)cc1 | > 128
CC#CCOc1ccc(C(=O)Nc2ccc(Br)cc2C(=O)O)cc1 | 16 (≈ 41.2 µM)
Cc1cc(C)n(COc2ccc(C(=O)Nc3ccc(Br)cc3C(=O)O)cc2)n1 | 64 (≈ 144 µM)
CC(C)OCCOc1ccc(C(=O)Nc2ccc(Br)cc2C(=O)O)cc1 | > 128
COC(=O)c1ccc(COc2ccc(C(=O)Nc3ccc(Br)cc3C(=O)O)cc2)cc1 | > 128
O=C(Nc1ccc(Br)cc1C(=O)O)c1ccc(OCCSc2nc3ccccc3s2)cc1 | 64 (≈ 121 µM)
O=C(Nc1ccc(Br)cc1C(=O)O)c1ccc(OCCc2ccccn2)cc1 | 128 (≈ 290 µM)
O=C(Nc1ccc(Br)cc1C(=O)O)c1ccc(OCCc2cccc([N+](=O)[O-])c2)cc1 | 64 (≈ 132 µM)
O=C(Nc1ccc(Br)cc1C(=O)O)c1ccc(OC2CCOCC2)cc1 | 128 (≈ 305 µM)
CSc1ccc(C(=O)Nc2ccc(C#N)cc2C(=O)O)cc1 | 0.5 (≈ 1.6 µM)
O=C(Nc1ccc(Br)cc1C(=O)O)c1ccc(OCCN2C(=O)c3ccccc3C2=O)cc1 | 64 (≈ 126 µM)
COc1cc(OC)cc(C(=O)Nc2ccc(C#N)cc2C(=O)O)c1 | 8 (≈ 24.5 µM)
CC(C)(C)CCOc1ccc(C(=O)Nc2ccc(Br)cc2C(=O)O)cc1 | 64 (≈ 152 µM)
N#Cc1ccc(NC(=O)c2ccc(F)cc2)c(C(=O)O)c1 | 128 (≈ 450 µM)
O=C(Nc1ccc(Br)cc1C(=O)O)c1ccc(OCCNc2ccccc2)cc1 | 64 (≈ 141 µM)
N#Cc1ccc(NC(=O)c2cccc3ccccc23)c(C(=O)O)c1 | 16 (≈ 50.6 µM)
CCOC(=O)C1CCC(Oc2ccc(C(=O)Nc3ccc(Br)cc3C(=O)O)cc2)CC1 (centres unmarked) | > 128
COCC1CCCN1S(=O)(=O)c1cccc(C(=O)Nc2ccc(C#N)cc2C(=O)O)c1 (centres unmarked) | 64 (≈ 144 µM)
CC(C)(C)c1ccc(-c2ccc(C(=O)Nc3ccc(C#N)cc3C(=O)O)cc2)cc1 | 32 (≈ 80.3 µM)
CC1CC(S(=O)(=O)c2cccc(C(=O)Nc3ccc(C#N)cc3C(=O)O)c2)CC(C)O1 (centres unmarked) | 16 (≈ 36.2 µM)
